# Experimental data reported in patent publication US20240208992A1, “MACROCYCLES AS CFTR MODULATORS” (Idorsia Pharmaceuticals Ltd, priority 2021, published 2024).
# Where two headings read alike, the source gives them in different places.
# What was measured:
# [1] = amide bond, 17-membered ring
# human F508del-CFTR = human F508del-CFTR (Homo sapiens, UniProt P13569, DEL508-508); test: F508del-CFTR cell surface expression (corrector activity), DiscoveRx ß-galactosidase complementation chemiluminescence assay in recombinant U2OS cell line; details: for EC50: EC50, F508del-CFTR cell surface expression; for Emax: U2OS;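 for all read-outs here: U2OS cells co-expressing ProLink-tagged F508del-CFTR and a membrane-anchored enzyme acceptor, where more surface CFTR restores β-galactosidase activity measured by chemiluminescence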
# Chain of human F508del-CFTR (P13569 with tags, fused parts or gaps DEL508-508): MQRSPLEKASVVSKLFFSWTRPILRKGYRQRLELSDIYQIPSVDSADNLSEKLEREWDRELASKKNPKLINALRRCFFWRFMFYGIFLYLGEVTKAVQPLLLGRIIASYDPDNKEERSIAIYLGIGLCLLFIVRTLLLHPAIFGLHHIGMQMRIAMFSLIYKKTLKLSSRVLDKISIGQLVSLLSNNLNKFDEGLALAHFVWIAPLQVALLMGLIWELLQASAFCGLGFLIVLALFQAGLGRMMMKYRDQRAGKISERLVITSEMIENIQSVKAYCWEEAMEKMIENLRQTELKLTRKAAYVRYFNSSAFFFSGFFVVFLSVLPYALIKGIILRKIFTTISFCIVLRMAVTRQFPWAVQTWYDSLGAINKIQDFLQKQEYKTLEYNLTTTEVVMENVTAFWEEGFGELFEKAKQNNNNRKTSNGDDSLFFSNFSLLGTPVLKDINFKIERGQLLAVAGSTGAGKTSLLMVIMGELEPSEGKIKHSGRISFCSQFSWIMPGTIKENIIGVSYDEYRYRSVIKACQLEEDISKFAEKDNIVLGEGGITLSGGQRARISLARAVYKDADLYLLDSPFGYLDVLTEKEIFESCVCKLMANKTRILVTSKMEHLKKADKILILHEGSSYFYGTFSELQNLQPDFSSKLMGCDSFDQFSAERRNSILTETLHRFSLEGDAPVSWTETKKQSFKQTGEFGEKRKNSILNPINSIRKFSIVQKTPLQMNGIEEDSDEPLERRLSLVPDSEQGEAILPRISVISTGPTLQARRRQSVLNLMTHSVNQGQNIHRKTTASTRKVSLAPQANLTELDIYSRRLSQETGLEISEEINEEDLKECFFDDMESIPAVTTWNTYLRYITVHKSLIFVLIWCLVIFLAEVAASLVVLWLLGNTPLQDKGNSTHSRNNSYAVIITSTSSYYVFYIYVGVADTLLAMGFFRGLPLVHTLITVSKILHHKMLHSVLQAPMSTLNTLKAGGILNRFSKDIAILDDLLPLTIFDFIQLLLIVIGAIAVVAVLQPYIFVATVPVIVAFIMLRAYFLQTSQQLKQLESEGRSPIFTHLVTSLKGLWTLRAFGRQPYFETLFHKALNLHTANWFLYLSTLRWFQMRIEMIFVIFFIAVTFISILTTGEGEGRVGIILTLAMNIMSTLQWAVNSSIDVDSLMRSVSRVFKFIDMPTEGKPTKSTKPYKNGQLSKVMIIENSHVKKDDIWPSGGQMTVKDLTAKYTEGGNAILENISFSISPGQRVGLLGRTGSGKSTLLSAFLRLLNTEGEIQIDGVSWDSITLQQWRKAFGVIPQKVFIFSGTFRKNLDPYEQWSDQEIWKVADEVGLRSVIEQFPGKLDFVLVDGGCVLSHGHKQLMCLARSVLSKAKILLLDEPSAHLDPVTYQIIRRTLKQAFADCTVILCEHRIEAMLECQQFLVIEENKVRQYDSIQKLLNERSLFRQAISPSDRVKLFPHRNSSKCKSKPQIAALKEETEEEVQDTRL
# [2] = U2OS cells, 16h compound incubation, geomean values
# [3] = in relation to Emax of corrector lumacaftor (=100%), arithmetic mean values
# [4] = U2OS cell line, 16h compound incubation, geomean values
# [5] = in relation to the Emax of the corrector lumacaftor (=100%), U2OS cell line, 16h compound incubation, arithmetic mean values
# [6] = U2OS cells, 16h compound incubation, geomean of several measurements
# [7] = in relation to the Emax of the corrector lumacaftor (=100%), U2OS cells, 16h compound incubation, arithmetic mean
compound,measurement,setting,value
CC(C)C[C@H]1C(=O)N(C[C@H]2COc3ccccc3C2)CC(=O)N[C@H](Cc2ccccc2)COc2ccc3ccccc3c2C(=O)N[C@H](C(=O)NCCc2ccc3c(c2)OCO3)CC(=O)N1C,"ring closure, yield after HPLC","[1]; from CN[C@@H](CC(C)C)C(=O)N(CC(=O)N[C@@H](COc1ccc2ccccc2c1C(=O)N[C@@H](CC(=O)O)C(=O)NCCc1ccc2c(c1)OCO2)Cc1ccccc1)C[C@H]1COc2ccccc2C1, HATU/DIEA, DMF, 82.0 mM, 25.0 °C",97%
"(7R,13S,17S)-7-Benzyl-11-(3,3-dimethylbutyl)-13-isobutyl-14-methyl-9,12,15,19-tetraoxo-6,7,8,9,10,11,12,13,14,15,16,17,18,19-tetradecahydro-[1,3]dioxolo[4′,5′:4,5]benzo[1,2-p][1]oxa[4,7,10,14]tetraazacycloheptadecine-17-carboxylic acid","ring closure, yield after HPLC","[1]; FDPP, DMF/DCM, resin, 67.5 mM, with chain assembly",26%
"COc1cc2c(cc1OC)C(=O)N[C@H](C(=O)NCCc1ccc3c(c1)OCCC3)CC(=O)N(C)[C@@H](CC(C)C)C(=O)N(CCC1CCCCC1)CC(=O)N[C@H](Cc1ccccc1)CO2 [Example 596, (3R,9S,13S)-3-benzyl-N-(2-(chroman-7-yl)ethyl)-7-(2-cyclohexylethyl)-9-isobutyl-17,18-dimethoxy-10-methyl-5,8,11,15-tetraoxo-2,3,4,5,6,7,8,9,10,11,12,13,14,15-tetradecahydrobenzo[p][1]oxa[4,7,10,14]tetraazacycloheptadecine-13-carboxamide]",EC50,human F508del-CFTR; [2],0.167 µM
same,Emax,human F508del-CFTR; [3],195%
"COc1nccc2c1C(=O)N[C@H](C(=O)NCCc1cc(C3CC3)no1)CC(=O)N(C)[C@@H](CC(C)C)C(=O)N1CC[C@@H](c3ccccc3)C[C@@H]1C(=O)N[C@H](Cc1ccccc1)CO2 [Example 672, (7S,11S,17aR,20R)-20-benzyl-N-(2-(3-cyclopropylisoxazol-5-yl)ethyl)-11-isobutyl-4-methoxy-10-methyl-5,9,12,18-tetraoxo-16-phenyl-5,6,7,8,9,10,11,12,15,16,17,17a,18,19,20,21-hexadecahydro-14H-dipyrido[2,1-f:3′,4′-p][1]oxa[4,7,10,14]tetraazacycloheptadecine-7-carboxamide]",EC50,human F508del-CFTR; [2],0.103 µM
same,Emax,human F508del-CFTR; [3],312%
CC(C)C[C@H]1C(=O)N(CC[C@H]2CCCCO2)CC(=O)N[C@H](Cc2ccccc2)COc2ccc3ccccc3c2C(=O)N[C@H](C(=O)NCCc2ccc3c(c2)OCO3)CC(=O)N1C [Example 363],EC50,human F508del-CFTR; [4],0.252 µM
same,Emax,human F508del-CFTR; [5],230%
"CCc1ccc(CCNC(=O)[C@@H]2CC(=O)N(C)[C@@H](CC(C)C)C(=O)N(C)CC(=O)N[C@H](Cc3ccccc3)COc3ccncc3C(=O)N2)cc1 [Example 252, (3R,9S,13S)-3-benzyl-N-(4-ethylphenethyl)-9-isobutyl-7,10-dimethyl-5,8,11,15-tetraoxo-2,3,4,5,6,7,8,9,10,11,12,13,14,15-tetradecahydropyrido[3,4-p][1]oxa[4,7,10,14]tetraazacycloheptadecine-13-carboxamide]",EC50,human F508del-CFTR; [4],0.888 µM
same,Emax,human F508del-CFTR; [5],111%
"COc1nc(C)cc2c1C(=O)N[C@H](C(=O)NCCn1ncc(C#N)n1)CC(=O)N(C)[C@@H](CC(C)C)C(=O)N1CCCC[C@@H]1C(=O)N[C@H](Cc1ccccc1)CO2 [Example 836, (7S,11S,17aR,20R)-20-benzyl-N-(2-(4-cyano-2H-1,2,3-triazol-2-yl)ethyl)-11-isobutyl-4-methoxy-2,10-dimethyl-5,9,12,18-tetraoxo-5,6,7,8,9,10,11,12,15,16,17,17a,18,19,20,21-hexadecahydro-14H-dipyrido[2,1-f:3′,4′-p][1]oxa[4,7,10,14]tetraazacycloheptadecine-7-carboxamide]",EC50,human F508del-CFTR; [6],0.967 µM
same,Emax,human F508del-CFTR; [7],257%
"CC(C)C[C@H]1C(=O)N(CCC2CCCCC2)CC(=O)N[C@H](Cc2ccccc2)COc2ccc3ccccc3c2C(=O)N[C@H](C(=O)NCCc2ccc3c(c2)OCO3)CC(=O)N1C [Example 267, (3S,7S,13R)-N-(2-(benzo[d][1,3]dioxol-5-yl)ethyl)-13-benzyl-9-(2-cyclohexylethyl)-7-isobutyl-6-methyl-1,5,8,11-tetraoxo-1,2,3,4,5,6,7,8,9,10,11,12,13,14-tetradecahydronaphtho[1,2-p][1]oxa[4,7,10,14]tetraazacycloheptadecine-3-carboxamide]",EC50,human F508del-CFTR; [4],0.107 µM
same,Emax,human F508del-CFTR; [5],275%
"Cc1cc(CCNC(=O)[C@@H]2CC(=O)N(C)[C@@H](CC(C)C)C(=O)N3CCCC[C@@H]3C(=O)N[C@@H](Cc3ccccc3)COc3cnc4ccccc4c3C(=O)N2)on1 [Example 487, (9S,13S,19aR,22S)-22-benzyl-13-isobutyl-12-methyl-N-(2-(3-methylisoxazol-5-yl)ethyl)-7,11,14,20-tetraoxo-7,8,9,10,11,12,13,14,17,18,19,19a,20,21,22,23-hexadecahydro-16H-pyrido[2′,1′:6,7][1]oxa[4,7,10,14]tetraazacycloheptadecino[17,16-c]quinoline-9-carboxamide]",EC50,human F508del-CFTR; [2],1.34 µM
same,Emax,human F508del-CFTR; [3],147%
"CC(C)C[C@H]1C(=O)N(C)[C@H](Cn2cc(-c3ccc(F)cn3)nn2)C(=O)N[C@H](Cc2ccccc2)COc2cnc3ccc(F)cc3c2C(=O)N[C@H](C(=O)NCCc2noc(C3CC3)n2)CC(=O)N1C [Example 885, (3S,7S,10R,13R)-13-benzyl-N-(2-(5-cyclopropyl-1,2,4-oxadiazol-3-yl)ethyl)-20-fluoro-10-((4-(5-fluoropyridin-2-yl)-1H-1,2,3-triazol-1-yl)methyl)-7-isobutyl-6,9-dimethyl-1,5,8,11-tetraoxo-1,2,3,4,5,6,7,8,9,10,11,12,13,14-tetradecahydro-[1]oxa[4,7,10,14]tetraazacycloheptadecino[17,16-c]quinoline-3-carboxamide]",EC50,human F508del-CFTR; [6],0.078 µM
same,Emax,human F508del-CFTR; [7],328%
"CC(C)C[C@H]1C(=O)N2CCN(C3CCC3)C[C@@H]2C(=O)N[C@H](Cc2ccccc2)COc2cnc3ccccc3c2C(=O)N[C@H](C(=O)NCCc2ccc3c(c2)OCO3)CC(=O)N1C [Example 395, (9S,13S,19aR,22R)-N-(2-(benzo[d][1,3]dioxol-5-yl)ethyl)-22-benzyl-18-cyclobutyl-13-isobutyl-12-methyl-7,11,14,20-tetraoxo-7,8,9,10,11,12,13,14,17,18,19,19a,20,21,22,23-hexadecahydro-16H-pyrazino[2′,11:6,7][1]oxa[4,7,10,14]tetraazacycloheptadecino[17,16-c]quinoline-9-carboxamide]",EC50,human F508del-CFTR; [4],0.11 µM
same,Emax,human F508del-CFTR; [5],316%
"CC(C)C[C@H]1C(=O)N(C)[C@H](Cc2nc(-c3ccc(F)cn3)no2)C(=O)N[C@H](Cc2ccccc2)COc2cnc3ccc(F)cc3c2C(=O)N[C@H](C(=O)NCCn2ncc(C3CC3)n2)CC(=O)N1C [Example 837, (3S,7S,10R,13R)-13-benzyl-N-(2-(4-cyclopropyl-2H-1,2,3-triazol-2-yl)ethyl)-20-fluoro-10-((3-(5-fluoropyridin-2-yl)-1,2,4-oxadiazol-5-yl)methyl)-7-isobutyl-6,9-dimethyl-1,5,8,11-tetraoxo-1,2,3,4,5,6,7,8,9,10,11,12,13,14-tetradecahydro-[1]oxa[4,7,10,14]tetraazacycloheptadecino[17,16-c]quinoline-3-carboxamide]",EC50,human F508del-CFTR; [6],0.198 µM
same,Emax,human F508del-CFTR; [7],358%
"CC(C)C[C@H]1C(=O)N(C)[C@H](Cc2nc(-c3ccc(F)cn3)no2)C(=O)N[C@H](Cc2ccccc2)COc2ccc3ncc(F)cc3c2C(=O)N[C@H](C(=O)NC[C@@H](O)c2nc(C3CC3)no2)CC(=O)N1C [Example 892, (3S,7S,10R,13R)-13-benzyl-N-((R)-2-(3-cyclopropyl-1,2,4-oxadiazol-5-yl)-2-hydroxyethyl)-20-fluoro-10-((3-(5-fluoropyridin-2-yl)-1,2,4-oxadiazol-5-yl)methyl)-7-isobutyl-6,9-dimethyl-1,5,8,11-tetraoxo-1,2,3,4,5,6,7,8,9,10,11,12,13,14-tetradecahydro-[1]oxa[4,7,10,14]tetraazacycloheptadecino[16,17-f]quinoline-3-carboxamide]",EC50,human F508del-CFTR; [6],0.467 µM
same,Emax,human F508del-CFTR; [7],442%
"CC(C)C[C@H]1C(=O)N(CCC2CCCCC2)CC(=O)N[C@H](Cc2ccccc2)COc2ccc3ccccc3c2C(=O)N[C@H](C(=O)NCCc2ccc3c(c2)OCC3)CC(=O)N1C [Example 600, (3S,7S,13R)-13-benzyl-9-(2-cyclohexylethyl)-N-(2-(2,3-dihydrobenzofuran-6-yl)ethyl)-7-isobutyl-6-methyl-1,5,8,11-tetraoxo-1,2,3,4,5,6,7,8,9,10,11,12,13,14-tetradecahydronaphtho[1,2-p][1]oxa[4,7,10,14]tetraazacycloheptadecine-3-carboxamide]",EC50,human F508del-CFTR; [2],0.097 µM
same,Emax,human F508del-CFTR; [3],286%
"COc1cccc2c1C(=O)N[C@H](C(=O)NCCc1ccc3c(c1)CCCO3)CC(=O)N(C)[C@@H](CC(C)C)C(=O)N(CCC1CCCCC1)CC(=O)N[C@H](Cc1ccccc1)CO2 (racemic) [Example 11, (3R,9S,13RS)-3-benzyl-N-(2-(chroman-6-yl)ethyl)-7-(2-cyclohexylethyl)-9-isobutyl-16-methoxy-10-methyl-5,8,11,15-tetraoxo-2,3,4,5,6,7,8,9,10,11,12,13,14,15-tetradecahydrobenzo[p][1]oxa[4,7,10,14]tetraazacycloheptadecine-13-carboxamide]",Emax,human F508del-CFTR; [5],132%
"COc1ccc(CCNC(=O)[C@@H]2CC(=O)N(C)[C@@H](CC(C)C)C(=O)N3CCCC[C@@H]3C(=O)N[C@H](Cc3ccccc3)COc3cnc4ccccc4c3C(=O)N2)cc1 [Example 84, (9S,13S,19aR,22R)-22-benzyl-13-isobutyl-N-(4-methoxyphenethyl)-12-methyl-7,11,14,20-tetraoxo-7,8,9,10,11,12,13,14,17,18,19,19a,20,21,22,23-hexadecahydro-16H-pyrido[2′,1′:6,7][1]oxa[4,7,10,14]tetraazacycloheptadecino[17,16-c]quinoline-9-carboxamide]",EC50,human F508del-CFTR; [4],0.274 µM
same,Emax,human F508del-CFTR; [5],299%
